Each structure is given as a SMILES string.

This is an account of results in PMC6071250 (2018).

Assay [1] concerns anti-AFT M1 aptamer (DNA, aptamer) ACTGCTAGAGATTTTCCACAT
In words: TIRE/LSPR spectral shift. As to conditions: 3 mM MgCl2, Na+ and K+ (HBB: 120 mM NaCl, 5 mM KCl; PBB: 137 mM NaCl, 2.7 mM KCl); HBB or PBB pH 7.4; stated not to bind; concentration tested not stated; immobilised aptamer.

For assay [2], the system named is anti-AFT B1 aptamer (DNA, aptamer) GTTGGGCACGTGTTGTCTCTCTGTGTCTCGTGCCCTTCGCTAGGCCCACA
In words: TIRE/LSPR spectral shift. As to conditions: 3 mM MgCl2, Na+ and K+ (HBB: 120 mM NaCl, 5 mM KCl; PBB: 137 mM NaCl, 2.7 mM KCl); HBB or PBB pH 7.4; stated not to bind; concentration tested not stated; immobilised aptamer.

Regarding `C[C@@H]1Cc2c(Cl)cc(C(=O)N[C@@H](Cc3ccccc3)C(=O)O)c(O)c2C(=O)O1`, the binding entry in assay [1] and in assay [2] was “no” each time.
